Assay [1] is described as follows: Selectivity ratio of TC50 to that of EC50. The class given is functional.
For assay [2], the system named is C8166. Put plainly: Inhibitory activity against HIV-111B in C8166 cells. The class given is functional, cell-based. The conditions noted are these: Homo sapiens.
Assay [3] concerns C8166. Put plainly: Compound was tested for toxicity against HIV-111B in C8166 cells. In kind it is functional. The conditions noted are these: Homo sapiens, read-out: TC50 (the source's name).
Assay [4] in a line: Selectivity ratio of TC50 to that of EC50; value ranges from 12.5-19. In kind it is functional.
Assay [5] concerns C8166. Put plainly: Compound was tested for toxicity against HIV-111B in C8166 cells; value ranges from 20-30 uM. In kind it is functional. The conditions noted are these: Homo sapiens, read-out: TC50 (the source's name).
For assay [6], the target named is Human immunodeficiency virus type 1 reverse transcriptase (Human immunodeficiency virus 1) (UniProt Q72547). Put plainly: Concentration required for inhibition of HIV-1 reverse transcriptase (RT).
For assay [7] the target is unchanged. Kind of assay: Compound was tested for % inhibition of HIV-1 reverse transcriptase (RT). The conditions noted are these: concentration not given here.
A short description of assay [8]: Selectivity ratio of TC50 to that of EC50; value ranges from 33-50. The class given is functional.

SMILES strings stand for the structures. Some results are limits rather than exact numbers.

By EC50 is commonly meant the concentration needed to bring the measured effect to its halfway point. A high value points to weaker potency. Regarding `CCCn1c(SC)nc2c(C)cccc21`, the Ratio in assay [1] was 25. This molecule also gave an EC50 in the assay on C8166 [2] of 4 µM. Besides, the CC50 in the assay on C8166 [3] worked out at 100 µM.

`CCCOn1c(CC)nc2ccc(C)cc21`: in assay [4], the Ratio is 12.5. Moreover, the CC50 in the assay on C8166 [5] is 20 µM. This molecule showed an EC50 in the assay with C8166 [2] of 1.6 µM.

A word on the inhibition: it is the drop in the measured response relative to a control, in per cent. As to `CCCOn1c(CC)nc2ccc(Cl)cc21`, the Ratio in assay [1] was 67. Further, in assay [6], the Concentration worked out at 10 µM. Also, in the assay with C8166 [2], the EC50 was determined as 0.6 µM. Besides, the inhibition in assay [7] was 50%. The CC50 in the assay with C8166 [3] worked out at 40 µM.

As for `CC(C)=CCN1Cc2cc(Cl)cc3[nH]c(=S)n(c23)C[C@@H]1C`, in assay [1], the Ratio stood at 31000. The Concentration in assay [6] is 0.16 µM. The response in the assay with C8166 [2] was half-maximal at 0.002 µM (EC50). Also, the inhibition in assay [7] came to 50%. For the same molecule, the CC50 in the assay on C8166 [3] stood at 62 µM.

`CCCOn1c(CC)nc2ccc(OC)cc21`: the Ratio in assay [1] turned out to be 31. Moreover, in the assay with C8166 [2], the response was half-maximal at 3.2 µM (EC50). For the same molecule, in the assay with C8166 [3], the CC50 is 100 µM.

In the case of `CCCOn1c(CC)nc2c(C)cccc21`, the Ratio in assay [1] came out at 167. For the same molecule, the Concentration in assay [6] was determined as 100 µM. The same molecule displayed an EC50 with C8166 [2] of 6 µM. In assay [7], this molecule displayed an inhibition of 66%. Further, in the assay on C8166 [3], the CC50 was found to be 1000 µM.

As to `Cc1cn([C@H]2C[C@H](N=[N+]=[N-])[C@@H](CO)O2)c(=O)[nH]c1=O` [ZIDOVUDINE], the CC50 with C8166 [3] is greater than 1000 µM.

With `CCCn1c(SC)nc2c(CBr)cccc21`, in assay [1], the Ratio was 10. Besides, the concentration giving a half-maximal response (EC50) in the assay on C8166 [2] was determined as 8 µM. In addition, the CC50 with C8166 [3] was 80 µM.

For the molecule `CCCOn1c(CC)nc2ccccc21`, the Ratio in assay [8] is 33. In the assay with C8166 [2], this molecule showed an EC50 of 2 µM. In addition, in the assay on C8166 [3], the CC50 was determined as 100 µM.

Source of the values: ChEMBL document CHEMBL1151036, “Synthesis and HIV-1 inhibition of novel benzimidazole derivatives” (Bioorg Med Chem Lett, 1995).
